Source: patent publication US20100267795A1, “NITROSUBSTITUTED ARYLOXYALKYLIMIDAZOLINES FOR USE AS PESTICIDES” (SYNGENTA CROP PROTECTION, INC., priority 2007, published 2010)

Assays:
Assay type in all cases: in vivo
[1] = test system: Myzus persicae (green peach aphid); assay: Myzus persicae (green peach aphid) pea seedling root uptake test; details: for mortality at 24 ppm: Myzus persicae, 144 h, read-out: control (mortality); for control (mortality): 24 ppm test solution, roots of infested pea seedlings, 6 days after introduction
Excerpt: Roots of pea seedlings, infested with an aphid population of mixed ages, were placed directly in the test solutions of 24 ppm. 6 days after introduction, samples were checked for mortality. The following compounds gave 100% control: 1.004 and 1.012. The following compounds gave 80% control: 1.001, 1.002, 1.009, 1.013 and 1.016. The following compound gave 50% control: 1.003.

[2] = test system: Myzus persicae (green peach aphid); assay: Myzus persicae (green peach aphid) sunflower leaf disc spray test; details: for mortality at 200 ppm: Myzus persicae, foliar, 144 h, read-out: control (mortality); for control (mortality): 200 ppm spray on sunflower leaf discs, aphid population of mixed ages, 6 DAT
Description: Sunflower leaf discs were placed on agar in a 24-well microtiter plate and sprayed with test solutions at an application rate of 200 ppm. After drying, the leaf discs were infested with an aphid population of mixed ages. After an incubation period of 6 DAT, samples were checked for mortality. The following compounds gave 100% control: 1.001, 1.002, 1.003, 1.004, 1.005, 1.006, 1.008, 1.009, 1.012, 1.013, 1.014, 1.016, 1.017 and 1.018. The following compounds gave 80% control: 1.007 and 1.011. The following compound gave 50% control: 1.010

[3] = test system: Tetranychus urticae (two-spotted spider mite); assay: Tetranychus urticae (two-spotted spider mite) bean leaf disc spray test; details: for mortality at 200 ppm: Tetranychus urticae, foliar, 192 h, read-out: control (egg mortality, larval mortality, adult mortality)
Excerpt: Bean leaf discs on agar in 24-well microtiter plates wer sprayed with test solutions at an application rate of 200 ppm. After drying, the leaf discs are infested with mite populations of mixed ages. 8 days later, discs are checked for egg mortality, larval mortality, and adult mortality. The following compounds gave 100% control: 1.001, 1.002, 1.003, 1.004, 1.006, 1.008, 1.009, 1.010, 1.012, 1.013, 1.014, 1.016, 1.017 and 1.018. The following compound gave 50% control: 1.011.

[4] = test system: Heliothis virescens (tobacco budworm); assay: Heliothis virescens (tobacco budworm) egg/larva test on artificial diet; details: for control (egg mortality, larval mortality, growth regulation): 200 ppm by pipetting, eggs 0-24 h old on artificial diet, 4 days incubation; for mortality at 200 ppm: Heliothis virescens, read-out: control (egg mortality, larval mortality, growth regulation)
Description: Eggs (0-24 h old) were placed in 24-well microtiter plate on artificial diet and treated with test solutions at an application rate of 200 ppm by pipetting. After an incubation period of 4 days, samples were checked for egg mortality, larval mortality, and growth regulation. The following compounds gave 100% control: 1.003 and 1.009. The following compounds gave 80% control: 1.001, 1.004, 1.005, 1.008 and 1.016. The following compounds gave 50% control: 1.013 and 1.017.

Question: What does the source list for `COCC(Oc1cccc([N+](=O)[O-])c1C)C1=NCCN1` (stereo not drawn) [Compound 1.012, 2-[2-Methoxy-1-(2-methyl-3-nitro-phenoxy)-ethyl]-4,5-dihydro-1H-imidazole]?
Answer: mortality at 24 ppm [1]: 100%; mortality at 200 ppm [2]: 100%; mortality at 200 ppm [3]: 100%

Question: With `CCC(Oc1cccc([N+](=O)[O-])c1C)C1=NCCN1C(=O)OC(C)(C)C` (stereo not drawn) [Compound 1.007] as the compound, how does the “control (mortality)” value [2] read?
Answer: Its value is 80%.

Question: How did the “control (mortality)” value [1] turn out when `CCC(Oc1cccc([N+](=O)[O-])c1C)C1=NCCN1` (stereo not drawn) [Compound 1.001] was run?
Answer: Its value is 80%.

Question: And the “control (egg mortality, larval mortality, growth regulation)” value [4]?
Answer: The value was 80%.

Question: How did the “control (mortality)” value [1] turn out when `Cc1c(OC(C2=NCCN2)C(C)C)cccc1[N+](=O)[O-]` (stereo not drawn) [Compound 1.002] was run?
Answer: Its value is 80%.

Question: `CCCCC(Oc1cccc([N+](=O)[O-])c1C)C1=NCCN1` (stereo not drawn) [Compound 1.005] was tested. Which “control (egg mortality, larval mortality, growth regulation)” value [4] did it give?
Answer: Its value is 80%.

Question: With `CCC(Oc1cccc([N+](=O)[O-])c1Cl)C1=NCCN1C(=O)OC(C)(C)C` (stereo not drawn) [Compound 1.011] as the compound, how does the “control (mortality)” value [2] read?
Answer: The value was 80%.

Question: And the “control (egg mortality, larval mortality, adult mortality)” value ([3]; 200 ppm spray on bean leaf discs, mite populations of mixed ages, 8 days)?
Answer: The value was 50%.

Question: With `CCCC(Oc1cccc([N+](=O)[O-])c1Cl)C1=NCCN1` (stereo not drawn) [Compound 1.009] as the compound, how does the “control (mortality)” value [1] read?
Answer: Its value is 80%.

Question: What about the “control (egg mortality, larval mortality, growth regulation)” value [4] of the same compound?
Answer: The value was 100%.

Question: Which results are given for `C=CCC(Oc1cccc([N+](=O)[O-])c1C)C1=NCCN1` (stereo not drawn) [Compound 1.013]?
Answer: control (mortality) [1]: 80%; control (egg mortality, larval mortality, growth regulation) [4]: 50%

Question: Which “control (mortality)” value [2] does the source give for `CCCC(Oc1cccc([N+](=O)[O-])c1Cl)C1=NCCN1C(=O)OC(C)(C)C` (stereo not drawn) [Compound 1.010] here?
Answer: The value was 50%.

Question: For `Cc1c(OC(C2=NCCN2)C2CC2)cccc1[N+](=O)[O-]` (stereo not drawn) [Compound 1.003], which “control (mortality)” value [1] is on record?
Answer: Its value is 50%.

Question: What about the “control (egg mortality, larval mortality, growth regulation)” value [4] of the same compound?
Answer: Its value is 100%.

Question: With `CCC(Oc1cccc([N+](=O)[O-])c1Cl)C1=NCCN1` (stereo not drawn) [Compound 1.008, 2-[1-(2-Chloro-3-nitro-phenoxy)-propyl]-4,5-dihydro-1H-imidazole] as the compound, how does the mortality at 200 ppm [4] read?
Answer: The mortality at 200 ppm was 80%.

Question: What about the mortality at 200 ppm [2] of the same compound?
Answer: Its mortality at 200 ppm is 100%.

Question: What about the mortality at 200 ppm [3] of the same compound?
Answer: Its mortality at 200 ppm is 100%.

Question: Which “control (egg mortality, larval mortality, growth regulation)” value [4] does the source give for `COCC(Oc1cccc([N+](=O)[O-])c1Cl)C1=NCCN1` (stereo not drawn) [Compound 1.017] here?
Answer: The value was 50%.

Question: `CCCC(Oc1cccc([N+](=O)[O-])c1C)C1=NCCN1` (stereo not drawn) [Compound 1.004] was tested. Which “control (mortality)” value [1] did it give?
Answer: The value was 100%.

Question: And the “control (egg mortality, larval mortality, growth regulation)” value [4]?
Answer: The value was 80%.

Question: Which mortality at 24 ppm [1] does the source give for `C=CCC(Oc1cccc([N+](=O)[O-])c1Cl)C1=NCCN1` (stereo not drawn) [Compound 1.016, 2-[1-(2-Chloro-3-nitro-phenoxy)-but-3-enyl]-4,5-dihydro-1H-imidazole] here?
Answer: Its mortality at 24 ppm is 80%.

Question: What about the mortality at 200 ppm [4] of the same compound?
Answer: The mortality at 200 ppm was 80%.

Question: And the mortality at 200 ppm [2]?
Answer: Its mortality at 200 ppm is 100%.

Question: What about the mortality at 200 ppm [3] of the same compound?
Answer: Its mortality at 200 ppm is 100%.
